System: Lox-IMVI melanoma cell line
Assay: Lox-IMVI anti-proliferative assay (growth inhibition, Cell Titer-Glo)
Type: cell-based, human
Conditions: Homo sapiens; Lox-IMVI anti-proliferative assay, IC50 activity level; read-out: Activity
Summary of the method: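 Luminescence from cellular ATP measured viability at compound addition and again after 72 h of exposure (37 °C, 5% CO2, RPMI + 10% FBS). Doses spanned 0.5 nM to 10 μM in ten 3-fold steps with 0.2% DMSO. Values were fitted as % of DMSO-treated cells by sigmoidal dose-response.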

SMILES	IC50 [nM]
NC(=O)[C@H]1CC[C@@H](n2c(Nc3c(F)cc(F)cc3F)nc3cnc(N[C@H]4CCC(F)(F)C4)nc32)CC1 [Example 593, (1R,4s)-4-(2-((S)-3,3-difluorocyclopentylamino)-8-(2,4,6-trifluorophenylamino)-9H-purin-9-yl)cyclohexanecarboxamide]	250 to 500
NC(=O)[C@H]1CC[C@@H](n2c(Nc3c(Cl)cc(Cl)cc3Cl)nc3cnc(N[C@H]4CCC(F)(F)C4)nc32)CC1 [Example 594, (1R,4s)-4-(2-((S)-3,3-difluorocyclopentylamino)-8-(2,4,6-trichlorophenylamino)-9H-purin-9-yl)cyclohexanecarboxamide]	250 to 500
NC(=O)[C@H]1CC[C@@H](n2c(Nc3c(Cl)cc(OC(F)(F)F)cc3Cl)nc3cnc(N[C@@H]4CCC[C@H](O)C4)nc32)CC1 [Example 595, (1S,4s)-4-(8-(2,6-dichloro-4-(trifluoromethoxy)phenylamino)-2-((1R,3S)-3-hydroxycyclohexylamino)-9H-purin-9-yl)cyclohexanecarboxamide]	> 1000
NC(=O)[C@H]1CC[C@@H](n2c(Nc3c(Cl)cc(OC(F)(F)F)cc3Cl)nc3cnc(NC4CCC(F)(F)CC4)nc32)CC1 [Example 596, (1s,4s)-4-(8-(2,6-dichloro-4-(trifluoromethoxy)phenylamino)-2-(4,4-difluorocyclohexylamino)-9H-purin-9-yl)cyclohexanecarboxamide]	> 1000
NC(=O)[C@H]1CC[C@@H](n2c(Nc3c(Cl)cc(OC(F)(F)F)cc3Cl)nc3cnc(NC4CCCC4)nc32)CC1 [Example 597, (1s,4s)-4-(2-(cyclopentylamino)-8-(2,6-dichloro-4-(trifluoromethoxy)phenylamino)-9H-purin-9-yl)cyclohexanecarboxamide]	> 1000
C[C@]1(C(N)=O)CC[C@@H](n2c(Nc3c(Cl)cc(OC(F)(F)F)cc3Cl)nc3cnc(NC4CCC4)nc32)CC1 [Example 598, (1s,4s)-4-(2-(cyclobutylamino)-8-(2,6-dichloro-4-(trifluoromethoxy)phenylamino)-9H-purin-9-yl)-1-methylcyclohexanecarboxamide]	> 1000

Same assay, conditions: Homo sapiens; Lox-IMVI melanoma cell line, anti-proliferative assay; read-out: Activity (IC50 activity level)

SMILES	IC50 [nM]
C[C@]1(C(N)=O)CC[C@@H](n2c(Nc3c(Cl)cc(C#N)cc3Cl)nc3cnc(NC4CCC4)nc32)CC1 [Example 599, (1s,4s)-4-(2-(cyclobutylamino)-8-(2,6-dichloro-4-cyanophenylamino)-9H-purin-9-yl)-1-methylcyclohexanecarboxamide]	< 250
C[C@]1(C(N)=O)CC[C@@H](n2c(Nc3c(F)cc(C#N)cc3Cl)nc3cnc(NC4CCC4)nc32)CC1 [Example 600, (1s,4s)-4-(8-(2-chloro-4-cyano-6-fluorophenylamino)-2-(cyclobutylamino)-9H-purin-9-yl)-1-methylcyclohexanecarboxamide]	< 250
C[C@]1(C(N)=O)CC[C@@H](n2c(Nc3c(F)cc(C#N)cc3F)nc3cnc(NC4CCC4)nc32)CC1 [Example 601, (1s,4s)-4-(8-(4-cyano-2,6-difluorophenylamino)-2-(cyclobutylamino)-9H-purin-9-yl)-1-methylcyclohexanecarboxamide]	< 250
C[C@]1(C(N)=O)CC[C@@H](n2c(Nc3c(Cl)cc(C(F)(F)F)cc3Cl)nc3cnc(NC4CCC4)nc32)CC1 [Example 602, (1s,4s)-4-(2-(cyclobutylamino)-8-(2,6-dichloro-4-(trifluoromethyl)phenylamino)-9H-purin-9-yl)-1-methylcyclohexanecarboxamide]	> 1000
C[C@]1(C(N)=O)CC[C@@H](n2c(Nc3c(Cl)cc(Cl)cc3Cl)nc3cnc(NC4CCC4)nc32)CC1 [Example 603, (1s,4s)-4-(2-(cyclobutylamino)-8-(2,4,6-trichlorophenylamino)-9H-purin-9-yl)-1-methylcyclohexanecarboxamide]	< 250
C[C@]1(C(N)=O)CC[C@@H](n2c(Nc3c(F)cc(F)cc3Cl)nc3cnc(NC4CCC4)nc32)CC1 [Example 604, (1s,4s)-4-(8-(2-chloro-4,6-difluorophenylamino)-2-(cyclobutylamino)-9H-purin-9-yl)-1-methylcyclohexanecarboxamide]	< 250
C[C@]1(C(N)=O)CC[C@@H](n2c(Nc3c(F)cc(Cl)cc3Cl)nc3cnc(NC4CCC4)nc32)CC1 [Example 605, (1s,4s)-4-(2-(cyclobutylamino)-8-(2,4-dichloro-6-fluorophenylamino)-9H-purin-9-yl)-1-methylcyclohexanecarboxamide]	< 250
C[C@]1(C(N)=O)CC[C@@H](n2c(Nc3c(F)cc(F)cc3F)nc3cnc(NC4CCC4)nc32)CC1 [Example 607, (1s,4s)-4-(2-(cyclobutylamino)-8-(2,4,6-trifluorophenylamino)-9H-purin-9-yl)-1-methylcyclohexanecarboxamide]	< 250
C[C@]1(C(N)=O)CC[C@@H](n2c(Nc3c(F)cc(Cl)cc3F)nc3cnc(NC4CCC4)nc32)CC1 [Example 608, (1s,4s)-4-(8-(4-chloro-2,6-difluorophenylamino)-2-(cyclobutylamino)-9H-purin-9-yl)-1-methylcyclohexanecarboxamide]	< 250
C[C@]1(C(N)=O)CC[C@@H](n2c(Nc3c(F)cc(F)cc3F)nc3cnc(N[C@H]4CCC[C@H](O)C4)nc32)CC1 [Example 609, (1R,4s)-4-(2-((1S,3S)-3-hydroxycyclohexylamino)-8-(2,4,6-trifluorophenylamino)-9H-purin-9-yl)-1-methylcyclohexanecarboxamide]	250 to 500
C[C@]1(C(N)=O)CC[C@@H](n2c(Nc3c(F)cc(F)cc3Cl)nc3cnc(N[C@H]4CCC[C@H](O)C4)nc32)CC1 [Example 610, (1R,4s)-4-(8-(2-chloro-4,6-difluorophenylamino)-2-((1S,3S)-3-hydroxycyclohexylamino)-9H-purin-9-yl)-1-methylcyclohexanecarboxamide]	250 to 500
C[C@]1(C(N)=O)CC[C@@H](n2c(Nc3c(Cl)cc(Cl)cc3Cl)nc3cnc(N[C@H]4CCC[C@H](O)C4)nc32)CC1 [Example 611, (1R,4s)-4-(2-((1S,3S)-3-hydroxycyclohexylamino)-8-(2,4,6-trichlorophenylamino)-9H-purin-9-yl)-1-methylcyclohexanecarboxamide]	< 250
C[C@]1(C(N)=O)CC[C@@H](n2c(Nc3c(F)cc(Cl)cc3Cl)nc3cnc(N[C@H]4CCC[C@H](O)C4)nc32)CC1 [Example 612, (1R,4s)-4-(8-(2,4-dichloro-6-fluorophenylamino)-2-((1S,3S)-3-hydroxycyclohexylamino)-9H-purin-9-yl)-1-methylcyclohexanecarboxamide]	< 250
C[C@]1(C(N)=O)CC[C@@H](n2c(Nc3c(Cl)cc(F)cc3Cl)nc3cnc(N[C@H]4CCC[C@H](O)C4)nc32)CC1 [Example 613, (1R,4s)-4-(8-(2,6-dichloro-4-fluorophenylamino)-2-((1S,3S)-3-hydroxycyclohexylamino)-9H-purin-9-yl)-1-methylcyclohexanecarboxamide]	< 250

Same assay, conditions: Lox-IMVI melanoma cell line, anti-proliferative assay; read-out: Activity (IC50 activity level)

SMILES	IC50 [nM]
C[C@]1(C(N)=O)CC[C@@H](n2c(Nc3c(Cl)cc(F)cc3Cl)nc3cnc(NC4CCC4)nc32)CC1 [Example 606, (1s,4s)-4-(2-(cyclobutylamino)-8-(2,6-dichloro-4-fluorophenylamino)-9H-purin-9-yl)-1-methylcyclohexanecarboxamide]	< 250

— patent publication US11590139B2, “Substituted aminopurine compounds, compositions thereof, and methods of treatment therewith” (Signal Pharmaceuticals, LLC, priority 2014, dated 2023)
